Measured values as given in article PMC10850954, “HDAC6/aggresome processing pathway importance for inflammasome formation is context-dependent” (The Journal of Biological Chemistry, 2024).
“Also recorded” adds a separate entry of the source.

Tested on: U937-pyrin cells
Experiment: Cell viability (resazurin) of U937-pyrin cells, pyroptosis
Format: cell-based, human
Conditions: BAA473 activation, resazurin assay
Experimental: Cell viability of PBMCs and U937 cells was checked with PrestoBlue HS Cell Viability Reagent (Invitrogen # P50200) according to the manufacturer’s instructions. After incubation for 1 to 2 h, fluorescence was determined with a PheraStar plate reader under Ex/Em = 540/590 nm.
Supplementary file mmc1.pdf: Supporting Figure S1 BMDM cells were primed by LPS (1 μg/ml) for 4 hrs and then challenged with 20 μM nigericin. 50 μl supernatant was collected every 15 min (up to 90 min) and mIL-1β level was determined by HTRF assay. […] Supporting Figure S2: A, immunoblot of HDAC1, HDAC2 and HDAC6 protein level in WT THP-1 cells vs DMSO or dTAG treated F10-FKBP^F36V THP-1 cells. DARPin F10 was detected by anti-HA antibody. B, FKBP^F36V THP-1 cells were established for evaluating the possible effect of dTAG on IL-1β release. Cells were first treated with PMA (0.5 μM) for 3 hr, then medium was changed and vehicle or dTAG was added (1 μM), followed by 20 μM nigericin for 3 hr. Supporting Figure S3: A, CTG cell viability assay to analyze degrader XY-07-035 toxicity in HEK293T, Jurkat and U937 cells. Cells were treated with different concentrations of the degrader, and cell viability determined by CTG assay was normalized to the non-treated group. […] Supporting Figure S4: Cell viability was measured by resazurin assay, and fluorescence intensity was a representative of the viability.

SMILES | cell viability / protection from pyroptosis
CN(C(=O)CCCNc1cccc2c1C(=O)N(C1CCC(=O)NC1=O)C2=O)c1ccc(NC(=O)CCCCCCC(=O)NO)cc1 (centres unmarked) [XY-07-35] | did not protect cells from pyroptosis; also recorded: No significant difference
CN1C(=O)CCC(N2C(=O)c3cccc(NCCCC(=O)N(C)c4ccc(NC(=O)CCCCCCC(=O)NO)cc4)c3C2=O)C1=O (centres unmarked) [XY-07-191] | No significant difference
